From patent US11013677B2, “Methods and compositions to reduce staining for antibacterial oral care compositions” (Colgate-Palmolive Company, priority 2019, dated 2021)

How the values were obtained:
[1] = Bovine enamel model of CHX staining, FeCl3/CHX/chelator solutions, change in whiteness ΔW*; conditions: for effect on teeth staining caused by CHX: when exposed to an iron solution (FeCl3 + CHX)
Description: (§1) A bovine enamel model was used to mimic CHX staining. The bovine teeth samples were kept hydrated until use. Baseline (L*, a*, and b*) measurements were taken of the samples before treatment using a spectroshade. The samples were then placed in a solution representing each of the treatments of Table 2 and then in artificial saliva. This cycle of soaking in the treatment and in artificial saliva was then repeated 14 times for each sample, with spectroshade measurements taken every two cycles immediately after soaking in the artificial saliva step (the samples were dabbed dry before measurements). Control samples soaked in FeCl3 alone and FeCl3+CHX solutions were also done.
(§2) The L*, a*, and b* values were used to calculate the change in whiteness (ΔW*) for each tooth after treatment as compared to the baseline values using Formulas (1) and (2) below. W*=((a*−0)^2+(b*−0)^2+(L*−100)^2)^1/2 Formula (1) ΔW*=W*treated−W*baseline Formula (2)
The more positive the value of ΔW*, the darker the tooth color is.

[2] = Bovine enamel staining model, CHX oral care compositions with metal chelator, ΔW*; conditions: for effect on CHX-staining (ΔW*): added to an oral care composition containing CHX
Description: as §1, §2
Table 4 illustrates the effects of a metal chelator on CHX-caused staining when incorporating into an oral care composition including CHX according to implementations of the present disclosure. In particular, Table 4 illustrates the ΔW* for 5 oral care compositions containing CHX and measured similarly as described above. The more positive the value of ΔW*, the darker the tooth color is.
Oral Care Composition #1 is a commercially available antimicrobial oral rinse with 0.12% chlorhexidine gluconate. Oral Care Compositions #2-#5 are the same as Oral Care Composition #1 except they include the specified amounts (by weight) of a metal chelator.

O=P(O)(O)CN(CP(=O)(O)O)CP(=O)(O)O [ATMP, aminotris(methylenephosphonic acid)]
staining reduction, comparison of chelators ([1]; ATMP versus IDA, every cycle): performed better at every cycle compared to IDA | effect on teeth staining caused by CHX [1]: decreased the amount of teeth staining caused by CHX

N[C@@H](CC(=O)O)C(=O)O [Aspartic acid]
relative performance in reducing CHX-staining ([2]; 1 weight % added to commercial rinse (0.12% chlorhexidine gluconate)): best performers | effect on CHX-staining (ΔW*) [2]: significantly reduced the amount of CHX-staining

[Cl][Fe]([Cl])[Cl] [FeCl3 alone, FeCl3]
ΔW* (change in whiteness) ([1]; Cycle 0 (baseline), more positive = darker tooth): 0 | ΔW* (change in whiteness) ([1]; Cycle 4 of treatment/artificial saliva soaking): 1.31 | ΔW* (change in whiteness) ([1]; Cycle 6 of treatment/artificial saliva soaking): 0.83 | ΔW* (change in whiteness) ([1]; Cycle 8 of treatment/artificial saliva soaking): 0.90 | ΔW* (change in whiteness) ([1]; Cycle 10 of treatment/artificial saliva soaking): 0.64 | ΔW* (change in whiteness) ([1]; Cycle 14 of treatment/artificial saliva soaking): 0.78

N[C@@H](CCC(=O)O)C(=O)O [Glutamic acid]
relative performance in reducing CHX-staining ([2]; 0.2 weight % added to commercial rinse (0.12% chlorhexidine gluconate)): best performers | effect on CHX-staining (ΔW*) [2]: significantly reduced the amount of CHX-staining

O=C(O)CC(NC(CC(=O)O)C(=O)O)C(=O)O (stereo not shown) [Imminodisuccinic acid]
effect on teeth staining caused by CHX [1]: decreased the amount of teeth staining caused by CHX
